Read-outs that look alike come from different tables or passages of the source.
Tests used:
α1, non-selective [1] = assay: Receptor binding, α1 non-selective; details: read-out: Setiptiline (Ki)
Text: (§1) 5HT3 antagonists are used to treat various maladies of the gastrointestinal tract, such as irritable bowel syndrome-diarrhea predominant and nausea and vomiting associated with chemotherapy. One potentially serious side effect of strong 5HT3 antagonists is constipation, which in some cases may be so severe as to lead to ischemic colitis.

α2, non-selective [2] = assay: Receptor binding, α2 non-selective; details: read-out: Setiptiline (Ki)
Text: as §1

5HT2, non-selective [3] = assay: Receptor binding, 5HT2 non-selective; details: 5HT2, non-selective receptor; read-out: Setiptiline (Ki)
Text: as §1

5HT2C [4] = biological target: T1, 5HT2C (Homo sapiens, UniProt P28335); assay: Receptor binding, 5HT2C; details: 5HT2C receptor; read-out: Setiptiline (Ki)
T1 sequence (P28335 33-458, species assumed): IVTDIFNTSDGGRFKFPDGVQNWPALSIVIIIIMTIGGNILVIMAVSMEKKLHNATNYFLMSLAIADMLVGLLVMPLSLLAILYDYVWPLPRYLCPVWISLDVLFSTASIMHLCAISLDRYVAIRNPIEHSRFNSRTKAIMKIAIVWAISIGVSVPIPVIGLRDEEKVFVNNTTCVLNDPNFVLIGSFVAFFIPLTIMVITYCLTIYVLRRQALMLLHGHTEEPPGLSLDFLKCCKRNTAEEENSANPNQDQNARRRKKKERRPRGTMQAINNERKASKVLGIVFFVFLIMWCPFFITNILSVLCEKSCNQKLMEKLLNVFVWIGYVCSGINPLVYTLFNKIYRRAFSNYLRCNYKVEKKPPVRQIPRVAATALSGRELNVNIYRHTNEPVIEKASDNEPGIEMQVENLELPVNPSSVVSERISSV
Text: as §1

5HT3 [5] = biological target: T2, 5HT3 (Homo sapiens, UniProt P46098); assay: Receptor binding, 5HT3; details: 5HT3 receptor; read-out: Setiptiline (Ki)
T2 sequence (P46098 24-478): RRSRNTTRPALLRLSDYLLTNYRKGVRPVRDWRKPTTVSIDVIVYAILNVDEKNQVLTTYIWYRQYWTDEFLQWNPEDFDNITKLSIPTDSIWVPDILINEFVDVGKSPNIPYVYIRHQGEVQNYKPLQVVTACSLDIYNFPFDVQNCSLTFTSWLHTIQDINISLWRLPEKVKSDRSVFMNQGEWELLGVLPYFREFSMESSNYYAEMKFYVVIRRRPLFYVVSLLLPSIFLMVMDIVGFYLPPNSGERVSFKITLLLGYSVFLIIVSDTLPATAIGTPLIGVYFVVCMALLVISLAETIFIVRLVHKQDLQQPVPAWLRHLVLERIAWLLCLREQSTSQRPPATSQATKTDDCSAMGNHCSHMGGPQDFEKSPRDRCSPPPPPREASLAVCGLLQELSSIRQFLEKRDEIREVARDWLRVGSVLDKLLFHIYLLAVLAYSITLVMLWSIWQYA
Text: as §1

Muscarinic M1 = biological target: T3, Muscarinic M1 (Homo sapiens, UniProt P11229); assay: Receptor binding, Muscarinic M1; details: read-out: Setiptiline (Ki)
T3 sequence (P11229 1-460): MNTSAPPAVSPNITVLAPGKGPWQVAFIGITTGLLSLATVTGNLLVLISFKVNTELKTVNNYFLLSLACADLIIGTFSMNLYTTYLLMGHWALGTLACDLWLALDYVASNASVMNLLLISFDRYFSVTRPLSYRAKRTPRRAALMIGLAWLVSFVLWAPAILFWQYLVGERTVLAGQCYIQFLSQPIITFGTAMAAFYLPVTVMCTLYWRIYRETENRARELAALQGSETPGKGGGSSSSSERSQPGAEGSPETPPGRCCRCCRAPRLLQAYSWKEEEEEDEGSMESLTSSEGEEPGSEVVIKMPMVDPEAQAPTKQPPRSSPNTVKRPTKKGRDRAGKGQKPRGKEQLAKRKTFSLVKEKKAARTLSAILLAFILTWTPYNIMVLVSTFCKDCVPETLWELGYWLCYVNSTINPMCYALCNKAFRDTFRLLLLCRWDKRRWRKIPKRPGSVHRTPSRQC
Text: as §1

NET = NET (Homo sapiens, UniProt P23975); assay: Receptor binding, NET; details: read-out: Setiptiline (Ki)
Chain of NET (P23975 whole entry): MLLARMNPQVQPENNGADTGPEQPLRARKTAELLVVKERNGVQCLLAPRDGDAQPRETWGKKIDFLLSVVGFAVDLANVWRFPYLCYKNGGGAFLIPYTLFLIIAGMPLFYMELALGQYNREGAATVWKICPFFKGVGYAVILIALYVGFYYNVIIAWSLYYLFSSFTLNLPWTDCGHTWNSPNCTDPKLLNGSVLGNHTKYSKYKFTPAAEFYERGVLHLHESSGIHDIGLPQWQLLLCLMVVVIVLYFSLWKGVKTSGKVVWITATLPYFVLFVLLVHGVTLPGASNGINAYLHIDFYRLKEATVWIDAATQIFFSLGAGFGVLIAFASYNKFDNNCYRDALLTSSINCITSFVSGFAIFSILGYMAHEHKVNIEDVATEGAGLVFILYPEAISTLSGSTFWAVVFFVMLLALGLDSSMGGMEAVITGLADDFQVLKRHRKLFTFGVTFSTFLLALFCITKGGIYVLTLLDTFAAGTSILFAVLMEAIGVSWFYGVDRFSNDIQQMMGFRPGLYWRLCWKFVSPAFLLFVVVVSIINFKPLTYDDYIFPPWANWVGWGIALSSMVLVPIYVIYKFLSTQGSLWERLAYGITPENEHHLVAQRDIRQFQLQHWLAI
Text: as §1

SERT = SERT (Homo sapiens, UniProt P31645); assay: Receptor binding, SERT; details: read-out: Setiptiline (Ki)
Chain of SERT (P31645 whole entry, species assumed): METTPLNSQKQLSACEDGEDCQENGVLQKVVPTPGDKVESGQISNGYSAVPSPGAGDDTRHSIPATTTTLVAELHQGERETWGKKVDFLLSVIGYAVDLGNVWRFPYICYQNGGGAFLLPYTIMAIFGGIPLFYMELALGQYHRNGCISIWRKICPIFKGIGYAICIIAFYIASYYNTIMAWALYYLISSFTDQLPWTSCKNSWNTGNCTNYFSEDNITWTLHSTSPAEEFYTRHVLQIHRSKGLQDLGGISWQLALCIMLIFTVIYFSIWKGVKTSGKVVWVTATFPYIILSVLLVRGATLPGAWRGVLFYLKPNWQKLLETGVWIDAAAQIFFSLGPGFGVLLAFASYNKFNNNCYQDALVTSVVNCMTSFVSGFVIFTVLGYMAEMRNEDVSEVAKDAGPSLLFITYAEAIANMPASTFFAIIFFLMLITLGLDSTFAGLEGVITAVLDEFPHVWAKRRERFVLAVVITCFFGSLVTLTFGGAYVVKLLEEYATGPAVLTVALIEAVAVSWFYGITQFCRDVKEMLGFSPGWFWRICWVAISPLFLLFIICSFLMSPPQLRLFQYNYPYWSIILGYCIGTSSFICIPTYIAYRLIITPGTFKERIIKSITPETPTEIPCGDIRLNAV
Text: as §1

[6] = biological target: T4, 5HT1A sertotonin receptor (Homo sapiens, UniProt P08908); assay: Affinity for the 5HT1A serotonin receptor; format: binding; details: read-out: affinity for the 5HT1A sertotonin receptor (pKi) (converted)
T4 sequence (P08908 1-422): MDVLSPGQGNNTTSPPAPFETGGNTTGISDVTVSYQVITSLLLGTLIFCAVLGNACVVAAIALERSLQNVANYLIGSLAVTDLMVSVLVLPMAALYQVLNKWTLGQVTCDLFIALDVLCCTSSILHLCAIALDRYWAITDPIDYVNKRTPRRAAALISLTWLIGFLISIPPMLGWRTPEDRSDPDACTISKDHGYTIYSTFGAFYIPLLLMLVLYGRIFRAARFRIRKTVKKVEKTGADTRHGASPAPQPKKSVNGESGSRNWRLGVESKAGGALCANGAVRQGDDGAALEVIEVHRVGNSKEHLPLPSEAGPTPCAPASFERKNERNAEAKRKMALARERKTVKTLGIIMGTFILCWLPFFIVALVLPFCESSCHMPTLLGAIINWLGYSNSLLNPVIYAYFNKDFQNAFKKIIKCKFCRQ

α1, non-selective [7] = details: read-out: Mirtazapine (Ki); α1, non-selective receptor; from de Boer et al., 1996; cited from earlier work
α2, non-selective [8] = details: read-out: Mirtazapine (Ki); α2, non-selective receptor; from de Boer et al., 1996; cited from earlier work
5HT2, non-selective [9] = details: read-out: Mirtazapine (Ki); 5HT2, non-selective receptor; from de Boer et al., 1996; cited from earlier work
5HT2C [10] = biological target: T1, 5HT2C; details: read-out: Mirtazapine (Ki); 5HT2C receptor; from de Boer et al., 1996; cited from earlier work
5HT3 [11] = biological target: T2, 5HT3; details: read-out: Mirtazapine (Ki); 5HT3 receptor; from de Boer et al., 1996; cited from earlier work

SMILES: CN1CCC2=C(C1)c1ccccc1Cc1ccccc12
- Ki (α1, non-selective [1]): 144 nM
- Ki (α2, non-selective [2]): 93 nM
- Ki (5HT2, non-selective [3]): 0.71 nM
- Ki (5HT2C [4]): 0.47 nM
- Ki (5HT3 [5]): 757 nM
- Ki (Muscarinic M1): 258 nM
- Ki (NET): 1960 nM
- Ki (SERT): > 10000 nM

SMILES: CC1CN(c2cccc(Cl)c2)CCN1CCCn1nc2ccccn2c1=O (centres unmarked) [MER 810]
- Ki [6]: 85.1 nM

SMILES: CN1CCN2c3ncccc3Cc3ccccc3C2C1 (centres unmarked) [Mirtazapine]
- Ki (α1, non-selective [7]): 501 nM
- Ki (α2, non-selective [8]): 50 nM
- Ki (5HT2, non-selective [9]): 6.3 nM
- Ki (5HT2C [10]): 13 nM
- Ki (5HT3 [11]): 79 nM
